Reference: patent US12649751B2 (Arcus Biosciences, Inc., priority 2022, dated 2026)
Like-named read-outs stand apart in the source and are kept apart here.

What was measured:
[1] = system: p-SLP-76 (Ser376) in Jurkat cells; test: pSLP76 Cellular Assay (AlphaLISA SureFire Ultra p-SLP-76 (Ser376), anti-CD3 activated Jurkat cells); type: cell-based; conditions: Homo sapiens, read-out: Cellular Potency
How it was run: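 Jurkat cells, serum-starved overnight in Opti-MEM then in HBSS, preincubated 1 h at 37 °C with 22-point 2-fold compound dilutions, then stimulated with anti-CD3 (0.025 mg/ml added solution) for 45 min. Lysate p-SLP-76 (Ser376) measured by AlphaLISA at 570 nm; IC50 from 4-parameter logistic fit.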

HPK1 = HPK1 (Homo sapiens, UniProt Q92918); test: HPK1 Biochemical Assay (ADP-Glo luminescence; low ATP 10 μM or high ATP 200 μM)
Sequence of HPK1 (Q92918 whole entry, species assumed): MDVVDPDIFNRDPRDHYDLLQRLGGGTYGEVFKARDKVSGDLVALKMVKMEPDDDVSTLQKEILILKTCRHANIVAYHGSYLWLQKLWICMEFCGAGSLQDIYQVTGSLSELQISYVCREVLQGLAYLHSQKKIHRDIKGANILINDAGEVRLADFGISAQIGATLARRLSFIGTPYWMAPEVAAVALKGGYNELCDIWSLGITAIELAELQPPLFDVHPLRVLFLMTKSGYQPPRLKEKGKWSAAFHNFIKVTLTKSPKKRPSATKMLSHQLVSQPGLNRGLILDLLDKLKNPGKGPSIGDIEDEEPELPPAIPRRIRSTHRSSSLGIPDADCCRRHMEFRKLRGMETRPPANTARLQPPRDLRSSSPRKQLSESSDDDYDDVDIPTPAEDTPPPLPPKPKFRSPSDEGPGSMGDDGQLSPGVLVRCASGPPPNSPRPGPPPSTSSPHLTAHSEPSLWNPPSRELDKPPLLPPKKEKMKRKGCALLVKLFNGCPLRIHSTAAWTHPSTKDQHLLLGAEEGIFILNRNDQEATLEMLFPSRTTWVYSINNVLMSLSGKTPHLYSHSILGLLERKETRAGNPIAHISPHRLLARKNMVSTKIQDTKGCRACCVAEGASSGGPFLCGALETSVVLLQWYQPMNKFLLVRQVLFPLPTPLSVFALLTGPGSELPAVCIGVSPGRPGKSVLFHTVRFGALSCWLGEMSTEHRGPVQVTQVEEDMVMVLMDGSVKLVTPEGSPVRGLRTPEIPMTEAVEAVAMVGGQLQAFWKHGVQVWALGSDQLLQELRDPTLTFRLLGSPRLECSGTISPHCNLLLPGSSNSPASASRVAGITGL

[2] = Jurkat cells, anti-CD3 stimulation, pSLP76
[3] = 2 nM HPK1, 10 μM ATP, read-out: Biochemical Potency (low ATP)
[4] = pSLP76 (Ser376) AlphaLISA, anti-CD3 activated Jurkat cells
[5] = HPK1 ADP-Glo assay, high ATP (200 μM ATP, 5 nM HPK1), read-out: Biochemical Potency (high ATP)

Row | IC50 [1, 2] [nM] | IC50 (HPK1; [3]) [nM] | IC50 [1, 4] [nM] | IC50 (HPK1; [5]) [nM] | Structure (SMILES)
1 | 1000 to 5000 | < 100 | – | – | c1cc(-c2nnco2)cc(-c2nc3cc(Nc4cccc(N5C[C@@H]6C[C@H]5CN6)n4)ncc3s2)c1 [Example 142, 6-[(1S,4S)-2,5-Diazabicyclo[2.2.1]heptan-2-yl]-N-{2-[3-(1,3,4-oxadiazol-2-yl)phenyl]-[1,3]thiazolo[5,4-c]pyridin-6-yl}pyridin-2-amine]
2 | – | – | 100 to 1000 | < 100 | Cc1cc(Nc2cc3nc(-c4nncn4C)sc3cn2)nc(N2C[C@@H]3C[C@H]2CN3CCO)n1 [Example 299, 2-[(1S,4S)-5-(4-methyl-6-{[2-(4-methyl-4H-1,2,4-triazol-3-yl)-[1,3]thiazolo[5,4-c]pyridin-6-yl]amino}pyrimidin-2-yl)-2,5-diazabicyclo[2.2.1]heptan-2-yl]ethan-1-ol]
3 | > 5000 | 1000 to 5000 | – | – | CN(Cc1nc(Nc2cc3nc(-c4c(F)cccc4F)sc3cn2)ccc1N1CCOCC1)S(C)(=O)=O [Example 31, N-[(6-{[2-(2,6-Difluorophenyl)-[1,3]thiazolo[5,4-c]pyridin-6-yl]amino}-3-(morpholin-4-yl)pyridin-2-yl)methyl]-N-methylmethanesulfonamide]
4 | – | – | < 100 | < 100 | Cc1cc(Nc2cc3nc(-c4cccc(C(=O)N(C)C)c4)sc3cn2)nc(N2C[C@@H]3C[C@H]2CN3[C@H]2CCOC2)n1 [Example 487]
5 | – | – | < 100 | < 100 | CC[C@@H]1COCCN1c1cc(-c2nc3cc(Nc4cc(C)nc(N5C[C@@H]6C[C@H]5CN6CC)n4)ncc3s2)ccn1 [Example 475]
6 | – | – | 1000 to 5000 | < 100 | Cc1cc(Nc2cc3nc(-c4cccc(C#Cc5cnn(C)c5)c4)sc3cn2)nc(N2C[C@@H]3C[C@H]2CN3CCO)n1 [Example 362]
7 | – | – | < 100 | < 100 | Cc1cc(Nc2cc3nc(-c4c(C)ccc(C(C)(C)O)c4C)sc3cn2)nc(N2C[C@@H]3C[C@H]2CN3C)n1 [Example 467]
8 | 100 to 1000 | < 100 | – | – | Cc1cccnc1-c1nc2cc(Nc3cccc(N4C[C@@H]5C[C@H]4CN5C)n3)ncc2s1 [Example 90, 6-[(1S,4S)-5-Methyl-2,5-diazabicyclo[2.2.1]heptan-2-yl]-N-[2-(3-methylpyridin-2-yl)-[1,3]thiazolo[5,4-c]pyridin-6-yl]pyridin-2-amine]
9 | 100 to 1000 | < 100 | – | – | CN1C[C@@H]2C[C@H]1CN2c1cccc(Nc2cc3nc(-c4ncccc4C(F)(F)F)sc3cn2)n1 [Example 92, 6-[(1S,4S)-5-Methyl-2,5-diazabicyclo[2.2.1]heptan-2-yl]-N-{2-[3-(trifluoromethyl)pyridin-2-yl]-[1,3]thiazolo[5,4-c]pyridin-6-yl}pyridin-2-amine]
10 | 1000 to 5000 | < 100 | – | – | Cc1cccc(F)c1-c1nc2cc(Nc3ccc(N4CCOCC4)c(CN4CCCC4)n3)ncc2s1 [Example 16, N-[2-(2-Fluoro-6-methylphenyl)-[1,3]thiazolo[5,4-c]pyridin-6-yl]-5-(morpholin-4-yl)-6-[(pyrrolidin-1-yl)methyl]pyridin-2-amine]
11 | > 5000 | < 100 | – | – | CCNC(C)c1nc(Nc2cc3nc(-c4c(F)cccc4F)sc3cn2)ccc1N1CCOCC1 (stereo not drawn) [Example 278, N-[2-(2,6-Difluorophenyl)-[1,3]thiazolo[5,4-c]pyridin-6-yl]-6-[1-(ethylamino)ethyl]-5-(morpholin-4-yl)pyridin-2-amine]
12 | – | – | 1000 to 5000 | 100 to 1000 | Cc1cc(Nc2cc3nc(-c4cccc5c4CCN(C)C5=O)sc3cn2)nc(N2C[C@@H]3C[C@H]2CN3C)n1 [Example 398]
